“Also recorded” adds a separate entry of the source. Values belong to the molecule of their own block, whether it stands above or below them.
How the values were obtained:
FASN [1] = molecular target: T1, FASN (Mus musculus, UniProt P19096); assay type: cell-based
Experimental: The NADPH/NADP+ ratio was calculated according to the manufacturer protocol (#G1009, Promega). Briefly, an equal number of cells were cultured in a 96-well format and starved overnight for TGF-beta 1 treatments. Next, the cells were lysed in 20% DTAB containing Basic solution for 10 min at RT. Samples were processed according to the protocol for measuring NADPH and NADP+ from the same well simultaneously. The absolute and relative NADPH/NADP+ values were calculated according to the manufacturer's formula.
Reduced and oxidized glutathione levels were measured according to the Glutathione Colorimetric Detection Kit (#EIAGSHC, Thermo Scientific) from the same well after completion of all treatments.
(§1) Primary cells were cultured on microscopic cover glass overnight until they reached 70% confluency. Cells were incubated in a 5 μM MitoSox (#M36008, Thermo Scientific) solution for 10 min in incubator and processed for imaging and quantifications. Cells were also incubated in 10 μM JC-1 (#T3168, Thermo Scientific) for 10 min and then proceeded with imaging and quantifications.

FASN [2] = molecular target: T1, FASN
FASN [3] = molecular target: T1, FASN; assay type: in vivo
Experimental: (§2) Animal studies were approved by the Institutional Animal Care and Use Committee (IACUC) of the University of Pennsylvania. Mice were housed in pathogen free conditions with 12 h dark and light cycle in a temperature- and humidity-controlled environment (23±1). The mice were fed ad libitum with water and rodent standard chow diet. 6- to 7-week-old male and female C57BL/6J mice were used in the study. Mice were randomly assigned to experimental groups for all experiments including drug efficacy studies. To induce kidney injury, the present study employed two widely used kidney disease models including unilateral ureteral obstruction (UUO) and folic acid nephropathy (FAN). UUO surgery experiments were conducted on male and female mice. Briefly, UUO was performed by ligating the right kidney ureter, and the left kidney served as a sham operated kidney. Post-surgical procedures were followed according to the IACUC guidelines. For FAN models, 300 mM sodium bicarbonate (NaHCO3) solution was first made to solubilize folic acid (FA) and injected into male mice (FA 250 mg/kg i.p at single dose). Mice were sacrificed 7 days following injection or surgery. For the drug injection studies, mice were first injected one day before the UUO surgery.
(§3) Approximately 20-30 mg of kidney tissue was homogenized in SDS-blue loading buffer (#7722, CST) containing 42 mM DTT. Samples were loaded onto the SDS-PAGE gels and run at 100v for 1 h 40 min at RT in Tris-Glycine-SDS buffer. The proteins were transferred onto a PVDF membrane. Membranes were blocked with 3% non-fat dry milk powder in tris-buffer saline containing Tween-20 (TBST) for 30 min at RT. The blots were then incubated with primary antibody overnight at 4OC. After primary antibody incubation, the blots were washed three times with TBST, IRdye-conjugated secondary antibodies were probed for 1 h at RT. Finally, the blots were washed in TBST for three minutes each, 10 min at RT, and scanned at 600, 700, and 800 excitation wavelengths in Li-COR imager (Odysseyφ XF), Image Studio software. The images were quantified for relative abundance in Image J software.
(§4) The tissues were fixed in formalin, dehydrated by an ethanol gradient (30%, 50%, 75% and 95%) and then submitted to the histology Core in 100% ethanol. Once the tissue was sectioned, H&E and Sirius red staining was performed. Images were acquired in Olympus 5000 microscope with Cell Sense software. Percentage of relative fibrosis was quantified in image J.
(§5) For the inhibitor studies, littermate mice were randomly assigned to receive either FASNall or ACSS2i. A single dose of 1 mg/ml FASNall was given via i.p injection at 10 mg/kg body weight one day prior to the UUO surgery. Mice were sacrificed 3 days after UUO surgery, and their kidneys were harvested. ACSS2i was injected at 20 mg/kg body weight via i.p injection one day prior to UUO surgery, followed by daily injections for 5 days. Mice sacrificed on the 7th day after UUO surgery.

primary TECs = assay: Cisplatin-treated primary kidney tubule cells from wild-type and Chmp1a+/- mice; assay type: cell-based
Experimental: For primary culture of renal tubule cells, kidneys were collected from 2- to 4-week-old male mice. Cells were isolated by 2 mg/ml collagenase I (Gibco #17018-029) digestion for 30 min at 37° C. with gentle stirring and filtered through a 100-μm mesh. The cell suspension was cultured in RPMI 1640 (Corning #10-040-CM) supplement with 10% FBS (Atlanta Biologicals #S11950), 20 ng/ml EGF (Peprotech #AF-100-15), 1×ITS (Gibco #51500-056), and 1% penicillin-streptomycin (Corning #30-002-CI) at 5% CO2 and 37° C.
Primary cultured renal tubule cells or NRK52E cells were incubated with 1 μM transferrin (Thermo Fisher #T13342) for 4 h, or 5 μM mitoSOX (ThermoFisher #M36008) for 10 min, or 2 μM BODIPY™ 581/591 C11 (Thermo Fisher #D3861) for 0.5 h, or 20 ng/ml dextran conjugated to 488 (Thermo Fisher #D22910) for 2 h, at 5% CO2 and 37° C., respectively. After washing with PBS, cells were imaged directly under the confocal or regular fluorescence microscope.
Mouse primary tubular epithelial cells from wild-type, mutant mice or NRK52E cells were plated in 96-well plate. Transfection of NRK52E cells with siRNA was carried out as described above. […] Cells were harvested and stained with trypan blue (Thermo Fisher #T10282) to visualize dead cells. Cell counts were analyzed in Countess Auto Counter (Invitrogen, C10227). LDH release was quantified using CytoTox 96 Non-Radioactive Cytotoxicity Assay (Promega #G1780). Medium was collected in triplicates, spun down, and incubated in a 96-well plate with the CytoTox reagent for 20-30 min. After adding the stop solution, the absorbance signal was measured at 490 nm in a plate reader. The ratio between dead cell and live cell was calculated through the measurement using MultiTox-Fluor Multiplex Cytotoxicity Assay (Promega #9201). Cells were incubated in assay buffer containing live cell substrate GF-AFC and dead cell substrate bis-AAF-R110 for 30 min at 37° C. The plate fluorescence was measured using a plate reader as following: viability: excitation ˜400 nm; emission ˜505 nm. cytotoxicity: excitation ˜485 nm; emission ˜520 nm.

mitochondrial ROS = assay: MitoTempo in TGF-beta 1 treated primary tubule cells; assay type: cell-based, mice
Experimental: as §1
Cells cultured as above and pretreated with 100 μM MitoTempo (#SML0737, Sigma) for 2 h, followed by TGF-beta 1 treatments while MitoTempo was still present.

ACSS2 [4] = molecular target: ACSS2 (Homo sapiens, UniProt Q9NR19); details: cell and animal models; cited from earlier work
ACSS2 [5] = molecular target: T2, ACSS2 (Mus musculus, UniProt Q9QXG4); assay: UUO mouse model of kidney fibrosis with ACSS2i; assay type: in vivo, mice
T2 construct: from tissue; host or cells: living C57BL/6J mice; read-outs in kidney
Experimental: as §2, §3, §4, §5

T1 sequence (P19096 whole entry): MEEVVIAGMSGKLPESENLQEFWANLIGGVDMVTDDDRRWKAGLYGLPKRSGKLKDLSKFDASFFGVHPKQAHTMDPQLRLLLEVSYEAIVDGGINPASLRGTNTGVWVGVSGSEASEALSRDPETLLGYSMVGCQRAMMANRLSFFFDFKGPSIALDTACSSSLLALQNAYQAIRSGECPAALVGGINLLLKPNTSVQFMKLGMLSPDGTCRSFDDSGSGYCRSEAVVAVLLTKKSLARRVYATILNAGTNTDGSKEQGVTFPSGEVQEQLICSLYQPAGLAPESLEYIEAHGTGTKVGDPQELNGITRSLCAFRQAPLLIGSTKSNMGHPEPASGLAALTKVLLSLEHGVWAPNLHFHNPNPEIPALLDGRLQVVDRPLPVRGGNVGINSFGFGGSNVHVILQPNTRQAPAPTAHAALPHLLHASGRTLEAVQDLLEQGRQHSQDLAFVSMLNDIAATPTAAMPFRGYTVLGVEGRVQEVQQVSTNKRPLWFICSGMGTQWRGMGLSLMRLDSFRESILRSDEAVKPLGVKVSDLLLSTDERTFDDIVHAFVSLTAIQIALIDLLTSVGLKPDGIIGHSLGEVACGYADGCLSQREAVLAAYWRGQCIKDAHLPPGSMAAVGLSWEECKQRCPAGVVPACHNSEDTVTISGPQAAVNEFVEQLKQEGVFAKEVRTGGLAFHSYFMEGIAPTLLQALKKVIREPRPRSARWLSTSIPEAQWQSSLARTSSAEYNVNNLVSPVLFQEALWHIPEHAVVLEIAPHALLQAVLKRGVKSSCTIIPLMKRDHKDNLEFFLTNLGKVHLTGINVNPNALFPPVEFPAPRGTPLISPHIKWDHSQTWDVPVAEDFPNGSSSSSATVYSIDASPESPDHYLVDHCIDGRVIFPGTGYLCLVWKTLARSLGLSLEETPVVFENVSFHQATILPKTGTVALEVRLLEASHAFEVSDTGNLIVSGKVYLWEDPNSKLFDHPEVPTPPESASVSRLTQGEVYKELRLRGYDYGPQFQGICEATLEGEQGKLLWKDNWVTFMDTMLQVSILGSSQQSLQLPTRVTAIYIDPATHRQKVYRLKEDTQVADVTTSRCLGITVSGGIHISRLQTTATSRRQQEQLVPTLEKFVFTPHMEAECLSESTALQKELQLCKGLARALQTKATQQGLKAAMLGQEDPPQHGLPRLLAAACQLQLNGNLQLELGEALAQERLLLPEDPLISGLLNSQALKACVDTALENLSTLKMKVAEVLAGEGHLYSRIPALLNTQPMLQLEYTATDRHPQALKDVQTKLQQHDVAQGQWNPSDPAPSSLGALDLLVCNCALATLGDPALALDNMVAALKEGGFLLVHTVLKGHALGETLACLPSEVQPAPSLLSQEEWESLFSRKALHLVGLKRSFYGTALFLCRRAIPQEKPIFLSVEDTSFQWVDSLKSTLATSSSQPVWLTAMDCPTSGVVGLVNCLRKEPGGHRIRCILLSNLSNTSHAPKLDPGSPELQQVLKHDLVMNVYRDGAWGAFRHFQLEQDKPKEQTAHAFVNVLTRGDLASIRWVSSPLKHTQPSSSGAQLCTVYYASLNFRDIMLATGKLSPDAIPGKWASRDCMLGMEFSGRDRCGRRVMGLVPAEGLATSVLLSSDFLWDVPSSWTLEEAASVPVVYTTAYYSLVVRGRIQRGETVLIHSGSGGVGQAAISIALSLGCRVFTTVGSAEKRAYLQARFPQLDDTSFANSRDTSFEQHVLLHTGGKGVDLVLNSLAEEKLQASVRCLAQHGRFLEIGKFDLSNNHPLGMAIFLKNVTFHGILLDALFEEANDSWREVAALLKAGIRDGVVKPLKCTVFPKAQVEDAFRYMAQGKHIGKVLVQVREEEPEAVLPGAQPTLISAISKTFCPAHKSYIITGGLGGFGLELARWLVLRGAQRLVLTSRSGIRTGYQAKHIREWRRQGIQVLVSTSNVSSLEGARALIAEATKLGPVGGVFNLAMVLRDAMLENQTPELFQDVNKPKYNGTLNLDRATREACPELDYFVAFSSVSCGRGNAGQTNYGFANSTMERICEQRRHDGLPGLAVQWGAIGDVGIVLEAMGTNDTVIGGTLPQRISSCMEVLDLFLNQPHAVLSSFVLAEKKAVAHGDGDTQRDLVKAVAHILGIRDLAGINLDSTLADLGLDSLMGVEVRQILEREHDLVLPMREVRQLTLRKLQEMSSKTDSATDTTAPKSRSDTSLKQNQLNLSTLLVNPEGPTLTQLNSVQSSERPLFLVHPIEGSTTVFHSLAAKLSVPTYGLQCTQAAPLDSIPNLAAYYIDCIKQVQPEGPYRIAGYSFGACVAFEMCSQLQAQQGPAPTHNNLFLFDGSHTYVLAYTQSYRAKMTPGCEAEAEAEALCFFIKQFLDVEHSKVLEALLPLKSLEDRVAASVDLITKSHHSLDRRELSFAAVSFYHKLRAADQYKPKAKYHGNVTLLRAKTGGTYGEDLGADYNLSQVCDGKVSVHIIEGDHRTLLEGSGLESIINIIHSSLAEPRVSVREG
T2 sequence (Q9QXG4 whole entry): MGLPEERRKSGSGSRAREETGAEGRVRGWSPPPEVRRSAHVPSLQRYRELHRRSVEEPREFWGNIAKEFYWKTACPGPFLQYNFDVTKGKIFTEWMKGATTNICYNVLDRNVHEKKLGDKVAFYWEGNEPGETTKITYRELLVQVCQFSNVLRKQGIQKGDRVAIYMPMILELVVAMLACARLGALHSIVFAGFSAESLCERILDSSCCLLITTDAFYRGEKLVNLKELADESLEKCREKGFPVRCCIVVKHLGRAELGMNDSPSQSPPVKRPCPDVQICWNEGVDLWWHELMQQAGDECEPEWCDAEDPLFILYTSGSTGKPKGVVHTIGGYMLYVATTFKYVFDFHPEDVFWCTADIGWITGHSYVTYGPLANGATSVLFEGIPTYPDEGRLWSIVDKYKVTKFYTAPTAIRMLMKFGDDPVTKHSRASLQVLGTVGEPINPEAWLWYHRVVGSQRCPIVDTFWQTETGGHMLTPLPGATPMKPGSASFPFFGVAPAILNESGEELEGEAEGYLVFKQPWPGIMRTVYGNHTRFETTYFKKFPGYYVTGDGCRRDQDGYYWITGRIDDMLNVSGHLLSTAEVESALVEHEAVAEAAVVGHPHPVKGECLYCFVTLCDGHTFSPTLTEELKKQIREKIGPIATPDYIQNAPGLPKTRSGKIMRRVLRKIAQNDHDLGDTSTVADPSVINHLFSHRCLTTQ
ACSS2 (Homo sapiens, UniProt Q9NR19), sequence (Q9NR19 whole entry, species assumed): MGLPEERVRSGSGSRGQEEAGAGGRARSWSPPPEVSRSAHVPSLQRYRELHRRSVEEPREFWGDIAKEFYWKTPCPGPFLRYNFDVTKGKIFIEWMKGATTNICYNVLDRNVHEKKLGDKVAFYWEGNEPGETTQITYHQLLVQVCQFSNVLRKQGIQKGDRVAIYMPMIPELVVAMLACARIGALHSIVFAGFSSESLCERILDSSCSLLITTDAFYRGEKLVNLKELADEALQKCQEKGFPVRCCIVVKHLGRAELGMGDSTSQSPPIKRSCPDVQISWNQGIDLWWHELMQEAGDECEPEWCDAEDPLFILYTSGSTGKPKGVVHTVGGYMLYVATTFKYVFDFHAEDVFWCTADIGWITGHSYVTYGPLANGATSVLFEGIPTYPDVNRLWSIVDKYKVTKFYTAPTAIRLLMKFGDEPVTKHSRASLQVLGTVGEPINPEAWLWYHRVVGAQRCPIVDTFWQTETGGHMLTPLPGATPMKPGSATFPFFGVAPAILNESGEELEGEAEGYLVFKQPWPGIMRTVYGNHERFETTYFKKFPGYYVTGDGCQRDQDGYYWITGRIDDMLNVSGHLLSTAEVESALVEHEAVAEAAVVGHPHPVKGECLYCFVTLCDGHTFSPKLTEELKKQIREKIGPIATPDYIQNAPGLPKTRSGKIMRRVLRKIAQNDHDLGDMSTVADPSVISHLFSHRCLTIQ

SMILES: Cc1sc2ncnc(NC3CCN(Cc4ccccc4)C3)c2c1C (stereo not drawn) [FASNall]
less negative mitochondrial membrane potential (monomeric JC-1 accumulation) (FASN [1]; TGF-beta 1 treated WT cells): attenuated this effect
GSH levels and relative GSH/GSSH ratio (FASN [1]; TGF-beta 1 treated cells): preserved
NADPH/NADP+ ratio (FASN [1]; TGF-beta 1 treated tubule cells): preserved
cell death (cell viability) (FASN [2]): did not increase cell death
Protein levels of FN1 and α-SMA (FASN [3]; UUO kidneys): suppressed; also recorded: lower
TGs (TAGs) levels in kidney (FASN [3]; UUO kidneys): prevented; also recorded: lower
fibrosis markers Acta2, Col1a1, Col3a, and Fn1 gene expression (FASN [3]; UUO kidneys): lower
gene expression of NLRP3, IL-1B, IL18, caspase1 and Gsdmd (FASN [3]; UUO kidneys): lower
lipid accumulation (Oil red O staining) (FASN [3]; UUO kidneys): attenuated; also recorded: lower
tissue scarring (Sirius red staining) (FASN [3]; UUO kidneys vs vehicle): less
tubule atrophy and fibrosis (histological analysis) (FASN [3]; UUO kidneys vs vehicle): lower
Protein levels of NLRP3, caspase1, cleaved caspase1 (p20), F-GSDMD, and N-GSDMD (FASN [3]; UUO kidneys vs vehicle treated): lower
Fasn and Plin2 expression (FASN [3]; UUO kidneys, single dose 10 mg/kg i.p., 10 mg/kg): significantly prevented; also recorded: ameliorated
kidney injury and fibrosis / kidney disease development (FASN [3]; mice): prevented kidney injury and fibrosis development; also recorded: protect mice from kidney disease development

SMILES: CC1(C)CC(NC(=O)C[P+](c2ccccc2)(c2ccccc2)c2ccccc2)CC(C)(C)N1[O] [Mito-TEMPO]
LDH release induced by cisplatin (primary TECs; Chmp1a+/- primary TECs): markedly lowered
lipid peroxidation (C11 BODIPY 581/591) induced by cisplatin (primary TECs; primary TECs from wild-type or Chmp1a+/- mice): markedly lowered
inflammasome activation (IL-1B, IL18, and caspase1 increase) (mitochondrial ROS; following TGF-beta 1 treatment, MitoTempo 100 μM): efficiently lowered
TGF-beta 1 induced expression of fibrosis markers / fibrotic genes (mitochondrial ROS; primary TECs): lowered; also recorded: diminished

fibrosis and tubule atrophy (H&E, Sirius red quantification) (ACSS2 [5]; UUO): markedly lower
gene expression of NLRP3, IL-1B, IL18, caspase1 and Gsdmd (ACSS2 [5]; UUO kidneys): lower
lipid accumulation (Fasn, Plin2 expression, TG accumulation) (ACSS2 [5]; UUO kidneys): inhibited
Protein levels of NLRP3, caspase1, cleaved caspase1 (p20), F-GSDMD, and N-GSDMD (ACSS2 [5]; UUO kidneys vs vehicle treated): lower
collagen fibers staining (Sirius Red) (ACSS2 [5]; vs vehicle alone): reduced
SMILES: COCCNC(=O)Nc1ccc2nc(-c3cccs3)c(-c3cccs3)nc2c1 [ACSS2i]
obesity-induced multiple myeloma growth (ACSS2 [4]): reduce
Gene and protein expression of fibrosis markers (Acta2, Col1a1, Col3a, and Fn1) (ACSS2 [5]; UUO kidney injury): reduced fibrosis; also recorded: protective effect
kidney disease development (ACSS2 [5]; mice): protect mice from kidney disease development
UUO induced kidney injury (H&E analysis) (ACSS2 [5]; vs vehicle injected mice): prevented
